In US8647867B2, “Cell cultivation method and cell culture” (National University Corportion Okayama University, priority 2005, dated 2014):

Tests used:
Assay type in all cases: cell-based
porcine hepatocyte [1] = test: Metabolic ability of ammonia in cultured porcine hepatocyte; set-up: ammonia metabolic rate: unit not given beside the values; settings: for ammonia metabolic rate: ammonium sulfate 0.56 mM, after 24 hours
porcine hepatocyte [2] = test: Metabolic ability of lidocaine in cultured porcine hepatocyte; set-up: lidocaine metabolic rate: unit not given beside the values; settings: for lidocaine metabolic rate: lidocaine 1 mg/ml, after 24 hours
porcine pancreatic islet = test: Insulin production ability of cultured porcine pancreatic islet
Method: A process of isolation of porcine pancreatic islet was carried out according to the method for isolation of human pancreatic islet (see, Lakey J R T, Kobayashi N, Shapiro A M J, Ricordi C, Okitsu T: Current human islet isolation protocol. Medical Review Co., Ltd., Osaka, Japan, 2004), and followed a method in a published literature (Yonekawa Y, Matsumono S, Okitsu T, Arata T, Iwanaga Y, Noguchi H, Nagata H, O'Neil J J, Tanaka K: Effective islet isolation method with extremely high islet yields from adult pigs. Cell Transplant. 14(10): 757-62, 2005). Those skilled in the art are capable of isolating pancreatic islet by referring to this literature.
Insulin production abilities of cultured porcine pancreatic islet were determined and compared between groups A and B. Using low glucose DMEM (glucose concentration: […]) (available from 25 GIBCO, Oakland, N.J.) supplemented with 10% FCS, nicotineamide 10 mM and penicillin G/streptomycin, cells were cultured for 24 hours until 60% confluency (low glucose). Then, the medium was changed for high glucose DMEM (glucose concentration: […]) (available from GIBCO, Oakland, N.J.) supplemented with 10% FCS, nicotineamide 10 mM and penicillin G/streptomycin, and cells were cultured for 6 hours (high glucose). After high glucose culture, the medium was exchanged for low glucose DMEM and cells were cultured for 6 hours (low glucose (after)). After each culture operation, the production amount of insulin in the culture medium (μg/l) was determined by an immunostaining method using a rabbit anti-human insulin antibody (available from DakoCytomation K. K., Kyoto, Japan).

human pancreatic islet = test: Morphological study of cultured human pancreatic islet by electron microscope (morphological criteria, points); settings: human pancreatic islets, day 5 of culture
Method: As the inspection method of cultured pancreatic islets, a method is mentioned in which the following 4 items as morphological criteria are evaluated at 5 levels (1 to 5 points) (see, literature: Matsumoto S, Qualley S A, Goel S, et al., Effect of the two-layer (University of Wisconsin solution-Perfluorochemical plus 02) method of pancreas preservation on human islet isolation as assessed by Edmonton isolation protocol. Transplantation 2002; 74: 1414).
Evaluation is performed at 5 levels of “flat: 1 point”, “approximately flat: 2 points”, “irregularly spherical: 3 points”, “approximately spherical: 4 points”, and “spherical: 5 points”.
Evaluation is performed at 5 levels of “irregular: 1 point”, “approximately irregular: 2 points”, “somewhat well-rounded: 3 points”, “approximately well-rounded: 4 points”, and “well-rounded: 5 points”. Among these, “well-rounded: 5 points” is most preferable.
Evaluation is performed at 5 levels of “fragmented: 1 point”, “approximately fragmented: 2 points”, “somewhat solid/compact: 3 points”, “approximately solid/compact: 4 points”, and “solid/compact: 5 points”. Among these, “solid/compact: 5 points” is most preferable.
Evaluation is performed at 5 levels of “smaller than 100 μm for individual cultured pancreatic islets (all <100 μm): 1 point”, “100 to 150 μm for individual cultured pancreatic islets: 2 points”, “[…] for individual cultured pancreatic islets: 3 points”, “150 to 200 μm for individual cultured pancreatic islets: 4 points”, and “larger than 200 μm for at least 10% of individual cultured pancreatic islets (>10%>200 μm): 5 points”. Among these, “larger than 200 μm for at least 10% of individual cultured pancreatic islets: 5 points” is most preferable. […]

porcine hepatocyte [3] = test: Morphological study of cultured porcine hepatocyte by phase-contrast and electron microscope
Method: Recently, it has been known that when three-dimensional culture of cells is performed on scaffold, cell functions are improved and maintained. […]

[4] = porcine hepatocyte, culture with insert, days 1, 7, 14 and 21
[5] = porcine hepatocyte, culture without insert, days 1, 7 and 14

## CC(=O)N[C@@H](CCCNC(=N)N)C(=O)N[C@@H](C)C(=O)N[C@@H](CC(=O)O)C(=O)N[C@@H](C)C(=O)N[C@@H](CCCNC(=N)N)C(=O)N[C@@H](C)C(=O)N[C@@H](CC(=O)O)C(=O)N[C@@H](C)C(=O)N[C@@H](CCCNC(=N)N)C(=O)N[C@@H](C)C(=O)N[C@@H](CC(=O)O)C(=O)N[C@@H](C)C(=O)N[C@@H](CCCNC(=N)N)C(=O)N[C@@H](C)C(=O)N[C@@H](CC(=O)O)C(=O)N[C@@H](C)C(N)=O [Group A, Ac-(RADA)4-CONH2]
Porcine hepatocyte [1]; Table 1(a), culture without insert, day 1 of culture
  ammonia metabolic rate: 58.6
Porcine hepatocyte [1]; Table 1(a), culture without insert, day 7 of culture
  ammonia metabolic rate: 43.8
Porcine hepatocyte [1]; Table 1(a), culture without insert, day 14 of culture
  ammonia metabolic rate: 26.4
Porcine hepatocyte [1]; Table 1(c), culture with insert, day 1 of culture
  ammonia metabolic rate: 61.6
Porcine hepatocyte [1]; Table 1(c), culture with insert, day 7 of culture
  ammonia metabolic rate: 49.6
Porcine hepatocyte [1]; Table 1(c), culture with insert, day 14 of culture
  ammonia metabolic rate: 38.2
Porcine hepatocyte [1]; Table 1(c), culture with insert, day 21 of culture
  ammonia metabolic rate: 36.1
Porcine hepatocyte [1]; Table 1b, culture without insert, day 1 of culture
  ammonia metabolic rate: 59.8
Porcine hepatocyte [1]; Table 1b, culture without insert, day 7 of culture
  ammonia metabolic rate: 44.3
Porcine hepatocyte [1]; Table 1b, culture without insert, day 14 of culture
  ammonia metabolic rate: 33.3
Porcine hepatocyte [1]; [4]
  ammonia metabolic rate as compared with collagen type I (monolayer) (group B), Matrigel (group C) and collagen sandwich (group D): significantly better
Porcine hepatocyte [1]; [5]
  ammonia metabolic rate as compared with collagen type I (monolayer) (group B): significantly better
  ammonia metabolic rate as compared with collagen type I (monolayer) (group B) and Matrigel (group C): significantly better
Porcine hepatocyte [2]; Table 2(a), culture without insert, day 1 of culture
  lidocaine metabolic rate: 40.0
Porcine hepatocyte [2]; Table 2(a), culture without insert, day 7 of culture
  lidocaine metabolic rate: 31.9
Porcine hepatocyte [2]; Table 2(a), culture without insert, day 14 of culture
  lidocaine metabolic rate: 19.1
Porcine hepatocyte [2]; Table 2(c), culture with insert, day 1 of culture
  lidocaine metabolic rate: 44.0
Porcine hepatocyte [2]; Table 2(c), culture with insert, day 7 of culture
  lidocaine metabolic rate: 36.9
Porcine hepatocyte [2]; Table 2(c), culture with insert, day 14 of culture
  lidocaine metabolic rate: 32.4
Porcine hepatocyte [2]; Table 2(c), culture with insert, day 21 of culture
  lidocaine metabolic rate: 30.2
Porcine hepatocyte [2]; Table 2b, culture without insert, day 1 of culture
  lidocaine metabolic rate: 40.8
Porcine hepatocyte [2]; Table 2b, culture without insert, day 7 of culture
  lidocaine metabolic rate: 32.2
Porcine hepatocyte [2]; Table 2b, culture without insert, day 14 of culture
  lidocaine metabolic rate: 21.0
Porcine hepatocyte [2]; [4]
  lidocaine metabolic rate as compared with collagen type I (monolayer) (group B), Matrigel (group C) and collagen sandwich (group D): significantly better
Porcine hepatocyte [2]; [5]
  lidocaine metabolic rate as compared with collagen type I (monolayer) (group B): significantly better
  lidocaine metabolic rate as compared with collagen type I (monolayer) (group B) and Matrigel (group C): significantly better
Porcine pancreatic islet; porcine islets (10 seeded), day 0 of culture, low glucose (100 g/l, 24 hours)
  production amount of insulin in the culture medium: 0.80 µg/L
Porcine pancreatic islet; porcine islets, day 0 of culture, high glucose (450 g/l, 6 hours)
  production amount of insulin in the culture medium: 1.62 µg/L
Porcine pancreatic islet; porcine islets, day 0 of culture, low glucose (after), 6 hours
  production amount of insulin in the culture medium: 1.01 µg/L
Porcine pancreatic islet; porcine islets, day 3 of culture, high glucose (450 g/l, 6 hours)
  production amount of insulin in the culture medium: 1.48 µg/L
Porcine pancreatic islet; porcine islets, day 3 of culture, low glucose (100 g/l, 24 hours)
  production amount of insulin in the culture medium: 0.80 µg/L
Porcine pancreatic islet; porcine islets, day 3 of culture, low glucose (after), 6 hours
  production amount of insulin in the culture medium: 0.90 µg/L
Porcine pancreatic islet; porcine islets, day 5 of culture, high glucose (450 g/l, 6 hours)
  production amount of insulin in the culture medium: 1.24 µg/L
Porcine pancreatic islet; porcine islets, day 5 of culture, low glucose (100 g/l, 24 hours)
  production amount of insulin in the culture medium: 0.69 µg/L
Porcine pancreatic islet; porcine islets, day 5 of culture, low glucose (after), 6 hours
  production amount of insulin in the culture medium: 0.78 µg/L
Porcine pancreatic islet; porcine islets, day 7 of culture, high glucose (450 g/l, 6 hours)
  production amount of insulin in the culture medium: 0.90 µg/L
Porcine pancreatic islet; porcine islets, day 7 of culture, low glucose (100 g/l, 24 hours)
  production amount of insulin in the culture medium: 0.49 µg/L
Porcine pancreatic islet; porcine islets, day 7 of culture, low glucose (after), 6 hours
  production amount of insulin in the culture medium: 0.71 µg/L
Porcine pancreatic islet; porcine pancreatic islet, day 5 of culture
  amount of insulin secreted in high glucose concentration (response to glucose concentration): increased
Human pancreatic islet
  pancreatic islet morphology: 1. shape: 5 (spherical: 5 points)
  pancreatic islet morphology: 3. integrity: 5 (solid/compact: 5 points)
  pancreatic islet morphology: sum of the evaluation values: 16 points
Porcine hepatocyte [3]; culture with insert, day 3 of culture, transmission electron microscope
  formation of cell adhesion apparatus and bile canaliculi between hepatocytes: a cell adhesion apparatus 5 and a bile canaliculi 6 were formed between hepatocytes
Porcine hepatocyte [3]; culture without insert, phase-contrast microscope days 1, 7, 14, electron microscope day 5
  formation of three-dimensional spheroid by hepatocytes: formation of three-dimensional spheroid by hepatocytes was confirmed
